Data taken from patent US11135234B2, “Effective aminoglycoside antibiotic for multidrug-resistant bacteria” (MICROBIAL CHEMISTRY RESEARCH FOUNDATION, priority 2015, dated 2021).
In brackets after ≈: the same amount, converted by molar mass.

Columns and labels:
P. aeruginosa MSC01035 = assay: MIC, agar plate dilution method, P. aeruginosa MSC01035; type: cell-based, Pseudomonas aeruginosa; settings: P. aeruginosa MSC01035, ABK-resistant; for MIC: Pseudomonas aeruginosa, read-out: minimal inhibitory concentration (MIC)
Procedure, shortened: (§1)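 Japan Society of Chemotherapy agar dilution protocol used. MIC reported in μg/mL.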

E. faecium ATCC19434 = assay: MIC, agar plate dilution method, E. faecium ATCC19434; type: cell-based, Enterococcus faecium; settings: for MIC: Enterococcus faecium, ATCC19434, E. faecium ATCC19434, read-out: minimal inhibitory concentration (MIC); for minimal inhibitory concentration (MIC): E. faecium ATCC19434
Procedure, shortened: as §1

[1] = system: K. pneumoniae ATCC BAA-1705; assay: MIC, agar plate dilution method, K. pneumoniae ATCC BAA-1705; type: cell-based, Klebsiella pneumoniae; settings: for MIC: Klebsiella pneumoniae, ATCCBAA1705, K. pneumoniae ATCC BAA-1705, KPC-producing strain, read-out: minimal inhibitory concentration (MIC); for minimal inhibitory concentration (MIC): K. pneumoniae ATCC BAA-1705, KPC-producing strain
Procedure, shortened: as §1

P. aeruginosa PAO1/GN315 = assay: MIC, agar plate dilution method, P. aeruginosa PAO1/GN315; type: cell-based, Pseudomonas aeruginosa; settings: for MIC: Pseudomonas aeruginosa, read-out: minimal inhibitory concentration (MIC), P. aeruginosa PAO1/GN315, AMK-resistant; for minimal inhibitory concentration (MIC): P. aeruginosa PAO1/GN315, AMK-resistant
Procedure, shortened: as §1

S. marcescens GN6944 = assay: MIC, agar plate dilution method, S. marcescens GN6944; type: cell-based, Serratia marcescens; settings: S. marcescens GN6944, GM-resistant; for MIC: Serratia marcescens, read-out: minimal inhibitory concentration (MIC)
Procedure, shortened: as §1

[2] = system: A. baumannii ATCC BAA-1710; assay: MIC, agar plate dilution method, A. baumannii ATCC BAA-1710; type: cell-based, Acinetobacter baumannii; settings: for MIC: Acinetobacter baumannii, ATCCBAA1710, A. baumannii ATCC BAA-1710, MDRA, read-out: minimal inhibitory concentration (MIC); for minimal inhibitory concentration (MIC): A. baumannii ATCC BAA-1710, MDRA
Procedure, shortened: as §1

S. aureus MF490 = assay: MIC, agar plate dilution method, S. aureus MF490; type: cell-based, Staphylococcus aureus; settings: for MIC: Staphylococcus aureus, MRSA, read-out: minimal inhibitory concentration (MIC); for minimal inhibitory concentration (MIC): S. aureus MF490, MRSA
Procedure, shortened: as §1

S. aureus RN4220 = assay: MIC, agar plate dilution method, S. aureus RN4220; type: cell-based, Staphylococcus aureus; settings: for MIC: Staphylococcus aureus, RN4220, S. aureus RN4220, Sensitive bacterium, read-out: minimal inhibitory concentration (MIC); for minimal inhibitory concentration (MIC): S. aureus RN4220, Sensitive bacterium
Procedure, shortened: as §1

S. marcescens TH-0447 = assay: MIC, agar plate dilution method, S. marcescens TH-0447; type: cell-based, Serratia marcescens; settings: for MIC: Serratia marcescens, TH0447, S. marcescens TH-0447, AMK-resistant, read-out: minimal inhibitory concentration (MIC); for minimal inhibitory concentration (MIC): S. marcescens TH-0447, AMK-resistant
Procedure, shortened: as §1

P. aeruginosa PAO1 = assay: MIC, agar plate dilution method, P. aeruginosa PAO1; type: cell-based, Pseudomonas aeruginosa; settings: for MIC: Pseudomonas aeruginosa, PAO1, P. aeruginosa PAO1, Sensitive bacterium, read-out: minimal inhibitory concentration (MIC); for minimal inhibitory concentration (MIC): P. aeruginosa PAO1, Sensitive bacterium
Procedure, shortened: as §1

P. aeruginosa MSC17707 = assay: MIC, agar plate dilution method, P. aeruginosa MSC17707; type: cell-based, Pseudomonas aeruginosa; settings: for MIC: Pseudomonas aeruginosa, MSC17707, P. aeruginosa MSC17707, AMK-resistant, read-out: minimal inhibitory concentration (MIC); for minimal inhibitory concentration (MIC): P. aeruginosa MSC17707, AMK-resistant
Procedure, shortened: as §1

S. aureus RN4220/pMS520 = assay: MIC, agar plate dilution method, S. aureus RN4220/pMS520; type: cell-based, Staphylococcus aureus; settings: for MIC: Staphylococcus aureus, MRSA, read-out: minimal inhibitory concentration (MIC), S. aureus RN4220/pMS520, MRSA; for minimal inhibitory concentration (MIC): S. aureus RN4220/pMS520, MRSA
Procedure, shortened: as §1

[3] = system: K. pneumoniae ATCC BAA-2146; assay: MIC, agar plate dilution method, K. pneumoniae ATCC BAA-2146; type: cell-based, Klebsiella pneumoniae; settings: for MIC: Klebsiella pneumoniae, ATCCBAA2146, K. pneumoniae ATCC BAA-2146, NDM-producing strain, read-out: minimal inhibitory concentration (MIC); for minimal inhibitory concentration (MIC): K. pneumoniae ATCC BAA-2146, NDM-producing strain
Procedure, shortened: as §1

E. coli JM109/pMW218 = assay: MIC, agar plate dilution method, E. coli JM109/pMW218; type: cell-based, Escherichia coli; settings: for MIC: Escherichia coli, JM109/PMW218, E. coli JM109/pMW218, Sensitive bacterium, read-out: minimal inhibitory concentration (MIC); for minimal inhibitory concentration (MIC): E. coli JM109/pMW218, Sensitive bacterium
Procedure, shortened: as §1

Structure (SMILES) | MIC (P. aeruginosa MSC01035) [µg/mL] | MIC (E. faecium ATCC19434) [µg/mL] | MIC [1] [µg/mL] | MIC (P. aeruginosa PAO1/GN315) [µg/mL] | MIC (S. marcescens GN6944) [µg/mL] | MIC [2] [µg/mL] | minimal inhibitory concentration (MIC) (P. aeruginosa MSC01035) [µg/mL] | minimal inhibitory concentration (MIC) (E. faecium ATCC19434) [µg/mL] | minimal inhibitory concentration (MIC) [1] [µg/mL] | minimal inhibitory concentration (MIC) (P. aeruginosa PAO1/GN315) [µg/mL] | minimal inhibitory concentration (MIC) (S. marcescens GN6944) [µg/mL] | minimal inhibitory concentration (MIC) [2] [µg/mL] | minimal inhibitory concentration (MIC) (S. aureus MF490) [µg/mL] | minimal inhibitory concentration (MIC) (S. aureus RN4220) [µg/mL] | minimal inhibitory concentration (MIC) (S. marcescens TH-0447) [µg/mL] | minimal inhibitory concentration (MIC) (P. aeruginosa PAO1) [µg/mL] | minimal inhibitory concentration (MIC) (P. aeruginosa MSC17707) [µg/mL] | minimal inhibitory concentration (MIC) (S. aureus RN4220/pMS520) [µg/mL] | minimal inhibitory concentration (MIC) [3] [µg/mL] | minimal inhibitory concentration (MIC) (E. coli JM109/pMW218) [µg/mL] | also measured
CNC1C(O[C@H]2OC(CO)[C@@H](NC(=O)CN)[C@H](O)C2O)O[C@H]2C[C@H](N)[C@@H](O[C@@H]3C(N)C[C@@H](N)C(O)[C@H]3N)OC2C1O (stereo partly drawn) [Compound W2-b, 5-amino-5-deoxy-5-epi-4″-N-glycylapramycin] | 4 (≈ 6.72 µM) | 32 (≈ 53.7 µM) | 2 (≈ 3.36 µM) | 4 (≈ 6.72 µM) | 8 (≈ 13.4 µM) | 8 (≈ 13.4 µM) |  |  |  |  |  |  |  |  |  |  |  |  |  |  | MIC (S. aureus MF490): 16 µg/mL (≈ 26.9 µM); MIC (S. aureus RN4220): 4 µg/mL (≈ 6.72 µM); MIC (S. marcescens TH-0447): 16 µg/mL (≈ 26.9 µM); MIC (P. aeruginosa PAO1): 2 µg/mL (≈ 3.36 µM); MIC (P. aeruginosa MSC17707): 4 µg/mL (≈ 6.72 µM); MIC (S. aureus RN4220/pMS520): 2 µg/mL (≈ 3.36 µM); MIC [3]: 2 µg/mL (≈ 3.36 µM); MIC (E. coli JM109/pMW218): 1 µg/mL (≈ 1.68 µM)
CNC1C(OC2OC(CO)C(NCC3(N)CCCC3)C(O)C2O)OC2CC(N)C(OC3C(N)CC(N)C(O)C3O)OC2C1O (stereo not shown) [Compound A4-c, 4″-N-((1-aminocyclopentyl)methyl)apramycin] |  |  |  |  |  |  | 16 (≈ 25.1 µM) | 16 (≈ 25.1 µM) | 1 (≈ 1.57 µM) | 16 (≈ 25.1 µM) | 8 (≈ 12.6 µM) | 32 (≈ 50.3 µM) | 16 (≈ 25.1 µM) | 4 (≈ 6.28 µM) | 8 (≈ 12.6 µM) | 16 (≈ 25.1 µM) | 32 (≈ 50.3 µM) | 4 (≈ 6.28 µM) | 1 (≈ 1.57 µM) | 1 (≈ 1.57 µM) | 
CNC1C(O[C@H]2OC(CO)[C@@H](NCCN)[C@H](O)C2O)O[C@H]2CC(N)[C@@H](O[C@H]3CC[C@H](N)CC3N)OC2C1O (stereo partly shown) [Compound T2-b, 4″-N-(2-aminoethyl)-5,6-dideoxyapramycin] | 16 (≈ 29.1 µM) | 16 (≈ 29.1 µM) | 2 (≈ 3.63 µM) | 8 (≈ 14.5 µM) | 8 (≈ 14.5 µM) | 8 (≈ 14.5 µM) |  |  |  |  |  |  |  |  |  |  |  |  |  |  | MIC (S. aureus MF490): 8 µg/mL (≈ 14.5 µM); MIC (S. aureus RN4220): 4 µg/mL (≈ 7.26 µM); MIC (S. marcescens TH-0447): 8 µg/mL (≈ 14.5 µM); MIC (P. aeruginosa PAO1): 8 µg/mL (≈ 14.5 µM); MIC (P. aeruginosa MSC17707): 8 µg/mL (≈ 14.5 µM); MIC (S. aureus RN4220/pMS520): 4 µg/mL (≈ 7.26 µM); MIC [3]: 2 µg/mL (≈ 3.63 µM); MIC (E. coli JM109/pMW218): 1 µg/mL (≈ 1.82 µM)
CNC1C(OC2OC(C)C(N)C(O)C2O)OC2CC(N)C(OC3C(N)CC(N)CC3O)OC2C1O (stereo not shown) [Compound Q4, 6,6″-dideoxy-5-epiapramycin] |  |  |  |  |  |  | 8 (≈ 15.8 µM) | 8 (≈ 15.8 µM) | 1 (≈ 1.97 µM) | 4 (≈ 7.88 µM) | 4 (≈ 7.88 µM) | 8 (≈ 15.8 µM) | 4 (≈ 7.88 µM) | 2 (≈ 3.94 µM) | 4 (≈ 7.88 µM) | 4 (≈ 7.88 µM) | 8 (≈ 15.8 µM) | 1 (≈ 1.97 µM) | 1 (≈ 1.97 µM) | 0.5 (≈ 0.985 µM) | 
CN[C@@H]1[C@@H](O[C@H]2O[C@H](CO)[C@@H](N)[C@@H](O)[C@H]2O)O[C@H]2C[C@@H](N)[C@@H](O[C@H]3[C@H](O)[C@@H](O)[C@H](N)C[C@@H]3N)O[C@@H]2[C@@H]1O [Compound H3, 3″-epiapramycin] |  |  |  |  |  |  | 8 (≈ 14.8 µM) | 16 (≈ 29.7 µM) | 2 (≈ 3.71 µM) | 8 (≈ 14.8 µM) | 8 (≈ 14.8 µM) | 8 (≈ 14.8 µM) | 8 (≈ 14.8 µM) | 4 (≈ 7.41 µM) | 8 (≈ 14.8 µM) | 8 (≈ 14.8 µM) | 8 (≈ 14.8 µM) | 4 (≈ 7.41 µM) | 2 (≈ 3.71 µM) | 2 (≈ 3.71 µM) | 
